Patent publication US5916924A, “Remedies for liver diseases” (Meiji Milk Products Co., Ltd., priority 1997, dated 1999)
Where a name gives a salt, the structure may show the parent alone. Read-outs that look alike come from different tables or passages of the source.

What was measured:
mice (ICR, female) = assay: Acute Toxicity Test; type: in vivo; conditions: intraperitoneal
Description: The pH was adjusted to 7.0 by use of 5N NaOH. Solutions having lower concentrations were prepared by dilution with physiological saline. Each solution (10 μl) was intraperitoneally injected to mice (ICR, female, 6-weeks old, 29 g), and the survival ratio was obtained.

[1] = tested on: liver disorder induced by carbon tetrachloride; assay: GOT and GPT tests in mice with liver disorder induced by carbon tetrachloride; type: in vivo, ddY mice
Description: Carbon tetrachloride (5 ml, Wako Pure Chemicals) was put in a glass vial, and Panasate 800 (45 ml, Nippon Yushi Chemicals Co, Ltd.) was added to prepare a 10% (v/v) solution.
Subsequently,the total amount was made to 50 ml. An aliquot of 2 ml was diluted in 38 ml of physiological saline.
One group consisted of 10 mice. For 24 hours prior to the administration of tetrachloride, each mouse was fasted by being fed water only. 10% carbon tetrachloride/Panasate solution was intraperitoneally administered to each mice at a dose of 1 ml/kg.
Blood was collected from the abdominal aorta by use of 1-ml disposable syringes (Terumo). The blood, dispensed into 1.5 ml Eppendorf tubes, was subjected to centrifugal separation at 5,000 rpm for 10 minutes to thereby obtain serum. The activity of transaminase (GOT, GPT) in the serum thus obtained was measured. The measurement was performed by use of a Cobas Mira System (Baxter).

[2] = tested on: rat hepatocyte system in primary culture
Description: In separation and identification of the low molecular weight factor showing hepatocyte proliferation promoting activity derived from epithelial mucosa of the bovine small intestine, the rat hepatocyte system in primary culture was used. To this culture system, a fraction of a crude extract of bovine small intestine epithelial mucosa in the course of purification was added in the presence of high molecular weight factor extract (1%) and insulin (10 μg/ml) or in the presence of EGF (20 ng/ml) and insulin (10 μg/ml), to thereby establish an assay system for measuring the uptake of ^3 H-TdR into DNA of rat hepatocyte nuclei.
Fractions each amounting 15 ml was added to the above-mentioned assay system and the uptake of ^3 H-TdR was measured.

[3] = intraperitoneal, 2.8 mg/kg, 2 times

Compound | Survival (mice (ICR, female); 0.5 g/kg (as EA), 1 day after admin.) | Survival (mice (ICR, female); 0.5 g/kg (as EA), 6 days after admin.) | Survival (mice (ICR, female); 0.5 g/kg (as EA), day of administration) | Survival (mice (ICR, female); 1.25 g/kg (as EA), 1 day after admin.) | Survival (mice (ICR, female); 1.25 g/kg (as EA), 6 days after admin.) | Survival (mice (ICR, female); 1.25 g/kg (as EA), day of administration) | time to death after administration (mice (ICR, female); 2.5 g/kg) [min] | Survival (mice (ICR, female); 2.5 g/kg (as EA), day of administration) | time to death after administration (mice (ICR, female); 5.0 g/kg) [min] | Survival (mice (ICR, female); 5.0 g/kg (as EA), day of administration) | Survival (mice (ICR, female); doses equal to or less than 1.25 g/kg, six days) | area of necrosis in histopathological profile of the liver ([1]; 2.8 mg/kg i.p. and 16 mg/kg p.o.) | serum GOT level [1, 3] | serum GPT level [1, 3] | serum GOT level ([1]; peroral, 16 mg/kg, once) | serum GPT level ([1]; peroral, 16 mg/kg, once) | 3H-TdR uptake activity ([2]; in the presence of EGF) | 3H-TdR uptake activity ([2]; in the presence of the high molecular weight factor extract)
NCCO [EA-HC1, monoethanolamine-HCl] | 4/4 | 4/4 | 4/4 | 3/3 | 3/3 | 3/3 | ≤ 30 | 0/4 | ≤ 30 | 0/4 | alive when six days had passed |  |  |  |  |  |  | 
NCCO [ethanolamine, monoethanolamine] |  |  |  |  |  |  |  |  |  |  |  | tendency that the area of necrosis was reduced | significantly decreased | significantly decreased | significantly decreased | significantly decreased | synergistic growth-stimulating effects | synergistic growth-stimulating effects
